# Measured values: the supplement of paper PMC10307832
# Key:
# Experiment in all cases: relative viability (nuclei count vs DMSO), 5 days (fraction); higher = more cells survive
# Dovitinib + Vorinostat = compound: CN1CCN(c2ccc3nc(-c4c(N)c5c(F)cccc5[nH]c4=O)[nH]c3c2)CC1 [Dovitinib] + O=C(CCCCCCC(=O)Nc1ccccc1)NO [Vorinostat] (partner 1 µM)
# How it was run: (§1)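 Lung cancer cell lines were seeded in 1536-well plates and dosed by pin tool the next day, with either a single drug or a fixed anchor-drug dose combined with five library-drug doses (not always all listed) spaced in √10 steps. Five days later, one step fixed the cells and stained their nuclei (final 0.05% Triton X-100, 1% formaldehyde, 1 ug/ml Hoechst), and nuclei were counted on 4× images. Relative viability is the nuclei count in treated wells divided by the count in vehicle wells, and each value is the median of duplicate plates.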
# Dovitinib + Alpelisib = compound: CN1CCN(c2ccc3nc(-c4c(N)c5c(F)cccc5[nH]c4=O)[nH]c3c2)CC1 [Dovitinib] + Cc1nc(NC(=O)N2CCC[C@H]2C(N)=O)sc1-c1ccnc(C(C)(C)C(F)(F)F)c1 [Alpelisib] (partner 2 µM)
# How it was run: as §1
# Dovitinib + Navitoclax = compound: CN1CCN(c2ccc3nc(-c4c(N)c5c(F)cccc5[nH]c4=O)[nH]c3c2)CC1 [Dovitinib] + CC1(C)CCC(c2ccc(Cl)cc2)=C(CN2CCN(c3ccc(C(=O)NS(=O)(=O)c4ccc(N[C@H](CCN5CCOCC5)CSc5ccccc5)c(S(=O)(=O)C(F)(F)F)c4)cc3)CC2)C1 [Navitoclax] (partner 0.5 µM)
# How it was run: as §1
# Dovitinib + Linsitinib = compound: CN1CCN(c2ccc3nc(-c4c(N)c5c(F)cccc5[nH]c4=O)[nH]c3c2)CC1 [Dovitinib] + C[C@]1(O)C[C@@H](c2nc(-c3ccc4ccc(-c5ccccc5)nc4c3)c3c(N)nccn32)C1 [Linsitinib] (partner 1 µM)
# How it was run: as §1
cell line,measurement,setting,value
NCI-H596,relative viability,Dovitinib + Vorinostat; first compound 0.02 µM,0.746
same,relative viability,Dovitinib + Vorinostat; first compound 0.06325 µM,0.606
same,relative viability,Dovitinib + Vorinostat; first compound 0.2 µM,0.569
same,relative viability,Dovitinib + Vorinostat; first compound 0.6325 µM,0.517
same,relative viability,Dovitinib + Vorinostat; first compound 2 µM,0.694
same,relative viability,Dovitinib + Alpelisib; first compound 0.02 µM,0.462
same,relative viability,Dovitinib + Alpelisib; first compound 0.06325 µM,0.542
same,relative viability,Dovitinib + Alpelisib; first compound 0.2 µM,0.563
same,relative viability,Dovitinib + Alpelisib; first compound 0.6325 µM,0.499
same,relative viability,Dovitinib + Alpelisib; first compound 2 µM,0.457
same,relative viability,Dovitinib + Navitoclax; first compound 0.02 µM,1.02
same,relative viability,Dovitinib + Navitoclax; first compound 0.06325 µM,0.987
same,relative viability,Dovitinib + Navitoclax; first compound 0.2 µM,0.871
same,relative viability,Dovitinib + Navitoclax; first compound 0.6325 µM,0.768
same,relative viability,Dovitinib + Navitoclax; first compound 2 µM,0.696
same,relative viability,Dovitinib + Linsitinib; first compound 0.02 µM,1.03
same,relative viability,Dovitinib + Linsitinib; first compound 0.06325 µM,1.01
same,relative viability,Dovitinib + Linsitinib; first compound 0.2 µM,1.09
same,relative viability,Dovitinib + Linsitinib; first compound 0.6325 µM,0.96
same,relative viability,Dovitinib + Linsitinib; first compound 2 µM,0.954
NCI-H1793,relative viability,Dovitinib + Vorinostat; first compound 0.02 µM,1.01
same,relative viability,Dovitinib + Vorinostat; first compound 0.06325 µM,0.753
same,relative viability,Dovitinib + Vorinostat; first compound 0.2 µM,0.751
same,relative viability,Dovitinib + Vorinostat; first compound 0.6325 µM,0.891
same,relative viability,Dovitinib + Vorinostat; first compound 2 µM,0.773
same,relative viability,Dovitinib + Alpelisib; first compound 0.02 µM,0.928
same,relative viability,Dovitinib + Alpelisib; first compound 0.06325 µM,0.601
same,relative viability,Dovitinib + Alpelisib; first compound 0.2 µM,0.88
same,relative viability,Dovitinib + Alpelisib; first compound 0.6325 µM,0.831
same,relative viability,Dovitinib + Alpelisib; first compound 2 µM,0.623
same,relative viability,Dovitinib + Navitoclax; first compound 0.02 µM,0.407
same,relative viability,Dovitinib + Navitoclax; first compound 0.06325 µM,0.359
same,relative viability,Dovitinib + Navitoclax; first compound 0.2 µM,0.456
same,relative viability,Dovitinib + Navitoclax; first compound 0.6325 µM,0.476
same,relative viability,Dovitinib + Navitoclax; first compound 2 µM,0.373
same,relative viability,Dovitinib + Linsitinib; first compound 0.02 µM,0.964
same,relative viability,Dovitinib + Linsitinib; first compound 0.06325 µM,0.679
same,relative viability,Dovitinib + Linsitinib; first compound 0.2 µM,0.856
same,relative viability,Dovitinib + Linsitinib; first compound 0.6325 µM,0.754
same,relative viability,Dovitinib + Linsitinib; first compound 2 µM,0.834
NCI-H1395,relative viability,Dovitinib + Vorinostat; first compound 0.02 µM,0.678
same,relative viability,Dovitinib + Vorinostat; first compound 0.06325 µM,0.622
same,relative viability,Dovitinib + Vorinostat; first compound 0.2 µM,0.787
same,relative viability,Dovitinib + Vorinostat; first compound 0.6325 µM,0.811
same,relative viability,Dovitinib + Vorinostat; first compound 2 µM,0.924
same,relative viability,Dovitinib + Alpelisib; first compound 0.02 µM,1.07
same,relative viability,Dovitinib + Alpelisib; first compound 0.06325 µM,0.988
same,relative viability,Dovitinib + Alpelisib; first compound 0.2 µM,1.11
same,relative viability,Dovitinib + Alpelisib; first compound 0.6325 µM,1.09
same,relative viability,Dovitinib + Alpelisib; first compound 2 µM,1.12
same,relative viability,Dovitinib + Navitoclax; first compound 0.02 µM,1.26
same,relative viability,Dovitinib + Navitoclax; first compound 0.06325 µM,1.53
same,relative viability,Dovitinib + Navitoclax; first compound 0.2 µM,1.26
same,relative viability,Dovitinib + Navitoclax; first compound 0.6325 µM,1.01
same,relative viability,Dovitinib + Navitoclax; first compound 2 µM,1.21
same,relative viability,Dovitinib + Linsitinib; first compound 0.02 µM,1.05
same,relative viability,Dovitinib + Linsitinib; first compound 0.06325 µM,1.29
same,relative viability,Dovitinib + Linsitinib; first compound 0.2 µM,1.24
same,relative viability,Dovitinib + Linsitinib; first compound 0.6325 µM,1.06
same,relative viability,Dovitinib + Linsitinib; first compound 2 µM,1.12
HCC-827,relative viability,Dovitinib + Vorinostat; first compound 0.02 µM,0.799
same,relative viability,Dovitinib + Vorinostat; first compound 0.06325 µM,0.867
same,relative viability,Dovitinib + Vorinostat; first compound 0.2 µM,0.876
same,relative viability,Dovitinib + Vorinostat; first compound 0.6325 µM,0.841
same,relative viability,Dovitinib + Vorinostat; first compound 2 µM,0.805
same,relative viability,Dovitinib + Alpelisib; first compound 0.02 µM,0.931
same,relative viability,Dovitinib + Alpelisib; first compound 0.06325 µM,0.926
same,relative viability,Dovitinib + Alpelisib; first compound 0.2 µM,0.918
same,relative viability,Dovitinib + Alpelisib; first compound 0.6325 µM,0.987
same,relative viability,Dovitinib + Alpelisib; first compound 2 µM,1.03
same,relative viability,Dovitinib + Navitoclax; first compound 0.02 µM,1.03
same,relative viability,Dovitinib + Navitoclax; first compound 0.06325 µM,1.02
same,relative viability,Dovitinib + Navitoclax; first compound 0.2 µM,1.07
same,relative viability,Dovitinib + Navitoclax; first compound 0.6325 µM,1
same,relative viability,Dovitinib + Navitoclax; first compound 2 µM,0.974
same,relative viability,Dovitinib + Linsitinib; first compound 0.02 µM,0.895
same,relative viability,Dovitinib + Linsitinib; first compound 0.06325 µM,0.97
same,relative viability,Dovitinib + Linsitinib; first compound 0.2 µM,0.959
same,relative viability,Dovitinib + Linsitinib; first compound 0.6325 µM,0.928
same,relative viability,Dovitinib + Linsitinib; first compound 2 µM,0.898
NCI-H2228,relative viability,Dovitinib + Vorinostat; first compound 0.02 µM,0.559
same,relative viability,Dovitinib + Vorinostat; first compound 0.06325 µM,0.81
same,relative viability,Dovitinib + Vorinostat; first compound 0.2 µM,0.402
same,relative viability,Dovitinib + Vorinostat; first compound 0.6325 µM,0.79
same,relative viability,Dovitinib + Vorinostat; first compound 2 µM,0.6
same,relative viability,Dovitinib + Alpelisib; first compound 0.02 µM,0.997
same,relative viability,Dovitinib + Alpelisib; first compound 0.06325 µM,0.674
same,relative viability,Dovitinib + Alpelisib; first compound 0.2 µM,0.61
same,relative viability,Dovitinib + Alpelisib; first compound 0.6325 µM,0.837
same,relative viability,Dovitinib + Alpelisib; first compound 2 µM,0.565
same,relative viability,Dovitinib + Navitoclax; first compound 0.02 µM,0.897
same,relative viability,Dovitinib + Navitoclax; first compound 0.06325 µM,1.16
same,relative viability,Dovitinib + Navitoclax; first compound 0.2 µM,0.833
same,relative viability,Dovitinib + Navitoclax; first compound 0.6325 µM,0.908
same,relative viability,Dovitinib + Navitoclax; first compound 2 µM,0.885
same,relative viability,Dovitinib + Linsitinib; first compound 0.02 µM,0.789
same,relative viability,Dovitinib + Linsitinib; first compound 0.06325 µM,0.632
same,relative viability,Dovitinib + Linsitinib; first compound 0.2 µM,0.669
same,relative viability,Dovitinib + Linsitinib; first compound 0.6325 µM,0.967
same,relative viability,Dovitinib + Linsitinib; first compound 2 µM,0.633
EMC-BAC-2,relative viability,Dovitinib + Vorinostat; first compound 0.02 µM,0.512
same,relative viability,Dovitinib + Vorinostat; first compound 0.06325 µM,0.449
same,relative viability,Dovitinib + Vorinostat; first compound 0.2 µM,0.422
same,relative viability,Dovitinib + Vorinostat; first compound 0.6325 µM,0.522
same,relative viability,Dovitinib + Vorinostat; first compound 2 µM,0.517
same,relative viability,Dovitinib + Alpelisib; first compound 0.02 µM,0.784
same,relative viability,Dovitinib + Alpelisib; first compound 0.06325 µM,0.772
same,relative viability,Dovitinib + Alpelisib; first compound 0.2 µM,0.701
same,relative viability,Dovitinib + Alpelisib; first compound 0.6325 µM,0.687
same,relative viability,Dovitinib + Alpelisib; first compound 2 µM,0.736
same,relative viability,Dovitinib + Navitoclax; first compound 0.02 µM,1.12
same,relative viability,Dovitinib + Navitoclax; first compound 0.06325 µM,1.2
same,relative viability,Dovitinib + Navitoclax; first compound 0.2 µM,1.12
same,relative viability,Dovitinib + Navitoclax; first compound 0.6325 µM,1.15
same,relative viability,Dovitinib + Navitoclax; first compound 2 µM,1.13
same,relative viability,Dovitinib + Linsitinib; first compound 0.02 µM,0.799
same,relative viability,Dovitinib + Linsitinib; first compound 0.06325 µM,0.799
same,relative viability,Dovitinib + Linsitinib; first compound 0.2 µM,0.825
same,relative viability,Dovitinib + Linsitinib; first compound 0.6325 µM,0.797
same,relative viability,Dovitinib + Linsitinib; first compound 2 µM,0.843
NCI-H23,relative viability,Dovitinib + Vorinostat; first compound 0.02 µM,0.551
same,relative viability,Dovitinib + Vorinostat; first compound 0.06325 µM,0.699
same,relative viability,Dovitinib + Vorinostat; first compound 0.2 µM,0.616
same,relative viability,Dovitinib + Vorinostat; first compound 0.6325 µM,0.735
same,relative viability,Dovitinib + Vorinostat; first compound 2 µM,0.643
same,relative viability,Dovitinib + Alpelisib; first compound 0.02 µM,0.788
same,relative viability,Dovitinib + Alpelisib; first compound 0.06325 µM,0.638
same,relative viability,Dovitinib + Alpelisib; first compound 0.2 µM,0.766
same,relative viability,Dovitinib + Alpelisib; first compound 0.6325 µM,0.631
same,relative viability,Dovitinib + Alpelisib; first compound 2 µM,0.627
same,relative viability,Dovitinib + Navitoclax; first compound 0.02 µM,0.83
same,relative viability,Dovitinib + Navitoclax; first compound 0.06325 µM,0.759
same,relative viability,Dovitinib + Navitoclax; first compound 0.2 µM,0.769
same,relative viability,Dovitinib + Navitoclax; first compound 0.6325 µM,0.908
same,relative viability,Dovitinib + Navitoclax; first compound 2 µM,0.764
same,relative viability,Dovitinib + Linsitinib; first compound 0.02 µM,0.546
same,relative viability,Dovitinib + Linsitinib; first compound 0.06325 µM,0.664
same,relative viability,Dovitinib + Linsitinib; first compound 0.2 µM,0.623
same,relative viability,Dovitinib + Linsitinib; first compound 0.6325 µM,0.57
same,relative viability,Dovitinib + Linsitinib; first compound 2 µM,0.506
RERF-LC-KJ,relative viability,Dovitinib + Vorinostat; first compound 0.02 µM,0.654
same,relative viability,Dovitinib + Vorinostat; first compound 0.06325 µM,0.681
same,relative viability,Dovitinib + Vorinostat; first compound 0.2 µM,0.761
same,relative viability,Dovitinib + Vorinostat; first compound 0.6325 µM,0.667
same,relative viability,Dovitinib + Vorinostat; first compound 2 µM,0.685
same,relative viability,Dovitinib + Alpelisib; first compound 0.02 µM,0.794
same,relative viability,Dovitinib + Alpelisib; first compound 0.06325 µM,0.825
same,relative viability,Dovitinib + Alpelisib; first compound 0.2 µM,0.852
same,relative viability,Dovitinib + Alpelisib; first compound 0.6325 µM,0.822
same,relative viability,Dovitinib + Alpelisib; first compound 2 µM,0.87
same,relative viability,Dovitinib + Navitoclax; first compound 0.02 µM,0.794
same,relative viability,Dovitinib + Navitoclax; first compound 0.06325 µM,1.06
same,relative viability,Dovitinib + Navitoclax; first compound 0.2 µM,1.1
same,relative viability,Dovitinib + Navitoclax; first compound 0.6325 µM,1.15
same,relative viability,Dovitinib + Navitoclax; first compound 2 µM,1.09
same,relative viability,Dovitinib + Linsitinib; first compound 0.02 µM,0.89
same,relative viability,Dovitinib + Linsitinib; first compound 0.06325 µM,0.934
same,relative viability,Dovitinib + Linsitinib; first compound 0.2 µM,0.938
same,relative viability,Dovitinib + Linsitinib; first compound 0.6325 µM,0.838
same,relative viability,Dovitinib + Linsitinib; first compound 2 µM,0.842
